Target: T1, human FSH receptor (Homo sapiens, UniProt P23945)
T1 construct: expressed in transfected cells; host or cells: Chinese Hamster Ovary (CHO) cells
T1 sequence (P23945 18-695): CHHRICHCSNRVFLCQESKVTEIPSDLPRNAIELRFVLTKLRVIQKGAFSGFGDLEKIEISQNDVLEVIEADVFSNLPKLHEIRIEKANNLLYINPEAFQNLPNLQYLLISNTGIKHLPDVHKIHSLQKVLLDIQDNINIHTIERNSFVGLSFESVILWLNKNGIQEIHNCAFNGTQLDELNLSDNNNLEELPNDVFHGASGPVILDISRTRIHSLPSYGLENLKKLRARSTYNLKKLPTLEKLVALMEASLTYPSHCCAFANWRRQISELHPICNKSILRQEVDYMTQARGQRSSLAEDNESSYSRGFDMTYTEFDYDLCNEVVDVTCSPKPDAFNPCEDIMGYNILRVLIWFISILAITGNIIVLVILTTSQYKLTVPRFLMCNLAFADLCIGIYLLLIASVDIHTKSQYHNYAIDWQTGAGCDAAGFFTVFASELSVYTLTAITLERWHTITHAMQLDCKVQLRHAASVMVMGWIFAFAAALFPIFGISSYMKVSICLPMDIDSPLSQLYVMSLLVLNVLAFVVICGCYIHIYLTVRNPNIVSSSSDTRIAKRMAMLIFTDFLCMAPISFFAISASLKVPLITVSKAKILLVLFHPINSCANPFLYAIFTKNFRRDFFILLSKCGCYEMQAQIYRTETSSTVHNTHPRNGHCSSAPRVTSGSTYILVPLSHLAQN
Assay: CHO-FSH in vitro bioactivity (CRE/luciferase reporter gene)
Format: cell-based
Conditions: CHO cells stably transfected with the human FSH receptor and CRE/firefly luciferase reporter; luminescence; read-out: EC50 (concentration of test compound causing half-maximal (50%) stimulation)
Description: CHO-FSH In Vitro Bioactivity
FSH activity of compounds were tested in Chinese Hamster Ovary (CHO) cells stably transfected with the human FSH receptor and cotransfected with a cAMP responsive element (CRE)/promotor directing the expression of a firefly luciferase reporter gene. Binding of ligand to the Gs-coupled FSH receptor will result in an increase of cAMP, which in turn will induce an increased transactivation of the luciferase reporter construct. The luciferase signal was quantified using a luminescence counter. For test compounds, EC50 values (concentration of test compound causing half-maximal (50%) stimulation) were calculated. For that purpose the software program GraphPad PRISM, version 3.0 (GraphPad software Inc., San Diego) was used.

Structure (SMILES) | EC50
CCCC1CC(=O)C2=C(C1)NC(C)=C(C#N)C2c1cc(Br)c(OCc2ccc(C(=O)NCc3cccs3)cc2)c(OCC)c1 (centres unmarked) [Example 29, 4-[2-Bromo-4-(3-cyano-2-methyl-5-oxo-7-propyl-1,4,5,6,7,8-hexahydroquinolin-4-yl)-6-ethoxyphenoxymethyl]-N-thiophen-2-ylmethylbenzamide] | < 1 nM
CCCC1CC(=O)C2=C(C1)NC(C)=C(C#N)C2c1cc(Br)c(OCc2cccc(C(=O)NCC(=O)OC)c2)c(OCC)c1 (centres unmarked) [Example 24, Glycine N-3-[2-bromo-4-(3-cyano-2-methyl-5-oxo-7-propyl-1,4,5,6,7,8-hexahydroquinolin-4-yl)-6-ethoxyphenoxymethyl]benzoyl methyl ester] | < 1 nM

Reference: US7994189B2, “Dihydropyridine derivatives” (N.V. Organon, priority 2005, dated 2011)
